Assay [1] has as its target dopamine transporter site (Cavia porcellus, UniProt H0WCX4). The assay can be described thus: Dopamine reuptake inhibition assay ([3H]WIN 35428 binding, striatal membranes). The note with it: read-out: DA Uptake, mean % inhibition; for inhibition at 0.1 µM: @ 100 nM (top number); for inhibition at 10 µM: @ 10.0 µM (bottom number). On the set-up: species or system Guinea pig. As to the method: (§1) Monoamine transporter binding assays (reuptake inhibition assays) were performed by NovaScreen using standard radioligand binding assays. The transporter binding assays are described briefly below:
(§2) Reactions were terminated by rapid vacuum filtration onto glass fiber filters.

Assay [2] has as its target NMDA receptor. The assay can be described thus: [3H]MK-801 binding assay, synaptic plasma membranes from rat cortex. The note with it: read-out: [^3H]MK-801 data IC50. As to the method:
Synaptic plasma membranes (SPMs) from rat cortex were prepared as follows. […] The cortices from 25 rats were thawed and pooled. […] The extensive washing procedure utilized in this assay was designed to minimize the concentrations of glutamate and glycine (co-agonists at the NMDA receptor-ionophore complex) present in the membrane preparation.
On the day of assay, aliquots of SPM were thawed and resuspended in 75 vols of 5 mM K-EDTA, pH 7.0.
The SPM pellet was resuspended in assay buffer (30 mM EPPS, 1 mM K-EDTA, pH 7.0) by polytron. […] Binding was started by the addition of the tissue homogenate. The assay was terminated by the addition of 4 ml ice-cold buffer, followed by filtration over glass-fiber filters (Schleicher & Schuell No. 30) on a Millipore 12-well filtration manifold. […] Radioactivity on the filters was measured using Fisherbrand Scinti-Safe scintillation cocktail. Samples were shaken for 45-60 min on a shaker platform to solubilize the radioactivity. Counting for ^3H was performed in a Beckman 6000IC LS Scintillation Counter for 4 min per sample.

Assay [3] has as its target norepinephrine transporter site (Rattus norvegicus, UniProt Q63380). Kind of assay: Norepinephrine reuptake inhibition assay ([3H]nisoxetine binding, forebrain membranes). The note with it: read-out: NE Uptake, mean % inhibition. As to the method:
as §1, §2

In assay [4] the test system is NMDA receptor. Kind of assay: NMDA assay: fura-2 measurement of cytosolic calcium in cultured rat cerebellar granule cells. Format: cell-based. As to the method:
All culture media, antibiotics, and enzymes, with the exception of fetal calf serum (Hyclone Laboratories, Logan, UT), were purchased from Sigma Chemical Co., St. Louis, MO. Fura-2/AM was obtained from Molecular Probes, Eugene, OR, and was prepared freshly in dimethylsulfoxide (DMSO) before use. Ionomycin (Calbiochem) was stored as a stock solution in DMSO. Nifedipine (Sigma) and nimodipine (RBI) were dissolved in absolute ethanol. […] All other agents were dissolved in phosphate-buffered saline (PBS), and adjusted to pH 7.4
Briefly, primary cultures of cerebellar granule neurons were obtained from 8-day-old rats and plated onto squares of Aclar plastic coated with poly-L-lyaine. The plastic squares were placed in 12-well culture plates, and ~7.5 x 10^5 cells were added to each well. […] No changes of culture medium were made until the cells were used for fluorescence recording 6-8 days after plating.
The cells were then rinsed with the same buffer, lacking fura-2/AM, and maintained at room temperature until used for measurement of fluorescence, the Aclar squares were transferred into quartz cuvettes containing 2 ml of the HEPES buffer. […] Fluorescence was measured using excitation and emission wavelengths of 340 and 510 nm, respectively.

Where a name gives a salt, the structure may show the parent alone. Some results are limits rather than exact numbers.

Chain of dopamine transporter site (H0WCX4 1-619): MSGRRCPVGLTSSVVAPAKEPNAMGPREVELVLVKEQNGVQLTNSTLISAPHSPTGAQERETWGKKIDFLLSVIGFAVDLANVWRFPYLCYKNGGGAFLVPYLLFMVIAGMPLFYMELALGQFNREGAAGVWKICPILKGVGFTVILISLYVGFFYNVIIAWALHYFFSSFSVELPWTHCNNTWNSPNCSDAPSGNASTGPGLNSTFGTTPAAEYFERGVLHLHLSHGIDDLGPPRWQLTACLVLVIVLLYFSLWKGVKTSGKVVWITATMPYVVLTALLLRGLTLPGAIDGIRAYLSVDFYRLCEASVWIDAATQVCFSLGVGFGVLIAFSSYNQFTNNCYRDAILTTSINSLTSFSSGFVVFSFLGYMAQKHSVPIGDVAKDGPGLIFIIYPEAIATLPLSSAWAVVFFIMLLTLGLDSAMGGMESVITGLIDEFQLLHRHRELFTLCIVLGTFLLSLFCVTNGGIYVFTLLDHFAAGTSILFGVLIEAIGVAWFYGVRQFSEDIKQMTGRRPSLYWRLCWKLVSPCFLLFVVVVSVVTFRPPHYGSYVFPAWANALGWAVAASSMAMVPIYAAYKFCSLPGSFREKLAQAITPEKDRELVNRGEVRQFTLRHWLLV
Chain of norepinephrine transporter site (Q63380 1-617): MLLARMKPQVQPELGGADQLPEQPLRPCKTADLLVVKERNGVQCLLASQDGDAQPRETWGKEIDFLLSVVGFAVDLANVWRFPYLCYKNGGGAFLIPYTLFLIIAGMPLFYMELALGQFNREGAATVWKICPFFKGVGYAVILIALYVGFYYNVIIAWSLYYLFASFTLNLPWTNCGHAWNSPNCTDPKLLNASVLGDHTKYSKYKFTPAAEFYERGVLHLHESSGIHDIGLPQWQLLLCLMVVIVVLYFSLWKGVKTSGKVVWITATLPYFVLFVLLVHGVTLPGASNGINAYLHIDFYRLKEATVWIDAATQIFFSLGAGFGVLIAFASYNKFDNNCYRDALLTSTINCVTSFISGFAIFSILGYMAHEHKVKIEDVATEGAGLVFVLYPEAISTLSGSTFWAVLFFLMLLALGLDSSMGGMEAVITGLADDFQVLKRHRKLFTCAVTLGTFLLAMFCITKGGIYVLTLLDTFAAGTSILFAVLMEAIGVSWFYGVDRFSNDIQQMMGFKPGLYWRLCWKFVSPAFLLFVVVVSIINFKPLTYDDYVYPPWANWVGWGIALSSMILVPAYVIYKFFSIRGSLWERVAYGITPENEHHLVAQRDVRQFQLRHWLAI

As to `NCCC(Oc1cccc(F)c1)c1cccc(F)c1` (stereo not drawn) [Compound 119, 3-(3-Fluorophenoxy)-3-(3-fluorophenyl)-1-propylamine], the inhibition at 0.1 µM in assay [1] worked out at 1.9%; in assay [3], 8.9%. In addition, the inhibition at 10 µM in assay [1] came to 58.3%; in assay [3] it was 19.4%. Also, the IC50 on NMDA receptor [2] is 87 nM; in the assay with NMDA receptor [4] (read-out: fura2 data IC50, fura-2 [Ca2+]i) it was 115 nM.
`NCCC1c2ccccc2CCc2ccccc21` [Compound 156, 5-(2-Aminoethyl)-5H-10, 11-dihydrodibenzo [a,d] cycloheptene hydrochloride]: the 50% inhibitory concentration (IC50) with NMDA receptor [4] (fura-2 [Ca2+]i, read-out: fura2 data IC50) was 69 nM.
As for `CNCCC(Oc1ccc(C(F)(F)F)cc1)c1ccccc1` (stereo not drawn) [Fluoxetine], the inhibition at 10 µM in assay [1] is 78%.
`Fc1ccc([C@@H]2CCNC[C@H]2COc2ccc3c(c2)OCO3)cc1` [Paroxetine, reference compound]: the inhibition at 0.1 µM in assay [1] and in assay [3] was below 20% each time. In addition, the figures for the inhibition at 10 µM in assay [1] and in assay [3] were 97% and 50%, respectively.

A word on the inhibition: it is the relative decrease from the control value, in per cent. For orientation: IC50 means the concentration that inhibits the measured activity by half.

These data come from patent publication EP1790337A2, “Methods and compounds for treating depression and other disorders” (priority 1998, dated 2000).
